{"source": "patent US9580521B1", "about": "“Process for making a poly(zwitterion/dianion)” (King Fahd University of Petroleum and Minerals, priority 2013, dated 2017)", "test": "Inhibition of calcium sulfate (gypsum) scaling, conductivity measurements", "settings": "20 ppm, supersaturated CaSO4 (3 CB); for 4, 9 and 5 screening by visual inspection under the same conditions", "procedure": "The concentration of reject brine (i.e., concentrated brine (CB)) is denoted as 1 CB.\nThe evaluation of the newly developed scale inhibitor PZA 6 was performed in 3 CB solutions supersaturated with respect to CaSO4 as confirmed from solubility data of CaSO4. To a solution of 6 CB calcium chloride (60 mL) containing PZA 6 (40 ppm i.e. 40 mg/L) at 40° C.±1° C. was added quickly a preheated (40° C.) solution of 6 CB sodium sulfate (60 mL). The resultant 3 CB solution containing 20 ppm of PZA 6 was stirred at 300 rpm using a magnetic stir-bar, and conductivity measurements were made at an interval of every 10 min initially to quantify the effectiveness of the newly developed antiscalant. The drop in conductivity indicates the precipitation of CaSO4. Induction time was measured with a decrease in conductivity when precipitation started. Visual inspection was carefully done to see any turbidity arising from precipitation.\nThe reject brine in the Reverse Osmosis process has dissolved salts which precipitate in the event of exceeding their solubility limits. […]\nA drop in conductivity is indicative of precipitation of CaSO4. […] To our satisfaction, there was no considerable change in conductivity for about 500 min, registering a 98% scale inhibition as calculated using eq 5: […]"}
{"molecule": "C=CC[N+](CC=C)(CCCP(=O)(OCC)OCC)CCCS(=O)(=O)[O-]", "note": "[Monomer 4, 3-[diallyl {3-(diethoxyphosphoryl)propyl}ammonio]propane-1-sulfonate]", "values": [{"measurement": "CaSO4 scale inhibition (in words)", "value": "neither monomers 4 and 9 nor polymer 5 gave any effective inhibition"}]}
